Laboratory results as given in PubChem BioAssay (NCI).
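Each compound was tested at five concentrations against cells in 96-well plates for 48 hours. GI50 is the concentration that inhibits growth by half. At the TGI there is no net growth.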

Key:
Experiment in all cases: inhibition of tumour cell growth, NCI panel, 48 h
TK-10 renal = system: TK-10 renal
NCI-H226 lung = system: NCI-H226 lung
K-562 leukemia = system: K-562 leukemia
RXF 393 renal = system: RXF 393 renal
MDA-MB-231 breast = system: MDA-MB-231 breast
CAKI-1 renal = system: CAKI-1 renal
SN12C renal = system: SN12C renal
RPMI-8226 leukemia = system: RPMI-8226 leukemia
SK-MEL-2 melanoma = system: SK-MEL-2 melanoma
U251 CNS = system: U251 CNS
SF-268 CNS = system: SF-268 CNS
786-0 renal = system: 786-0 renal
KM12 colon = system: KM12 colon
NCI-H23 lung = system: NCI-H23 lung
OVCAR-5 ovarian = system: OVCAR-5 ovarian
COLO 205 colon = system: COLO 205 colon
HT29 colon = system: HT29 colon
IGROV1 ovarian = system: IGROV1 ovarian
SK-OV-3 ovarian = system: SK-OV-3 ovarian
HOP-62 NSCLC = system: HOP-62 NSCLC
SF-539 CNS = system: SF-539 CNS
A549 NSCLC = system: A549 NSCLC
HCT-116 colon = system: HCT-116 colon
M14 melanoma = system: M14 melanoma
OVCAR-8 ovarian = system: OVCAR-8 ovarian
HCT-15 colon = system: HCT-15 colon
NCI-H522 lung = system: NCI-H522 lung
SK-MEL-5 melanoma = system: SK-MEL-5 melanoma
SNB-19 CNS = system: SNB-19 CNS
T-47D breast = system: T-47D breast
UACC-62 melanoma = system: UACC-62 melanoma
SK-MEL-28 melanoma = system: SK-MEL-28 melanoma
MCF7 breast = system: MCF7 breast
A498 renal = system: A498 renal
UACC-257 melanoma = system: UACC-257 melanoma
NCI/ADR-RES ovarian = system: NCI/ADR-RES ovarian
SF-295 CNS = system: SF-295 CNS
HOP-92 NSCLC = system: HOP-92 NSCLC
MALME-3M melanoma = system: MALME-3M melanoma
HL-60(TB) leukemia = system: HL-60(TB) leukemia
EKVX NSCLC = system: EKVX NSCLC
CCRF-CEM leukemia = system: CCRF-CEM leukemia
MDA-MB-435 = system: MDA-MB-435
HCC-2998 colon = system: HCC-2998 colon
PC-3 prostate = system: PC-3 prostate
HS 578T breast = system: HS 578T breast
UO-31 renal = system: UO-31 renal
MOLT-4 leukemia = system: MOLT-4 leukemia
NCI-H460 lung = system: NCI-H460 lung
LOX IMVI melanoma = system: LOX IMVI melanoma
SW-620 colon = system: SW-620 colon
DU-145 prostate = system: DU-145 prostate
OVCAR-3 ovarian = system: OVCAR-3 ovarian
ACHN renal = system: ACHN renal
BT-549 breast = system: BT-549 breast

Work on C#CC1(O)C(COP(=O)(O)OCC2OC(n3cc(F)c(=O)[nH]c3=O)CC2O)OC(n2ccc(N)nc2=O)C1O (stereo not given) yielded a GI50 (TK-10 renal) of 10 nM, a GI50 (NCI-H226 lung) of less than 10 nM and a TGI (NCI-H226 lung) greater than 100000 nM. For the same compound, the GI50 (K-562 leukemia) was less than 10 nM, the TGI (K-562 leukemia) was greater than 100000 nM and the GI50 (RXF 393 renal) was less than 38.7 nM. It also gave a TGI (RXF 393 renal) of 1480 nM, a GI50 (MDA-MB-231 breast) of less than 13.3 nM and a TGI (MDA-MB-231 breast) of 315 nM. It also gave a GI50 (CAKI-1 renal) of less than 10 nM, a GI50 (SN12C renal) of less than 10 nM and a GI50 (RPMI-8226 leukemia) of less than 10 nM. The TGI (RPMI-8226 leukemia) was 119 nM, the GI50 (SK-MEL-2 melanoma) was 55.2 nM and the TGI (SK-MEL-2 melanoma) was 5780 nM. For the same compound, the GI50 (U251 CNS) was less than 27.3 nM, the TGI (U251 CNS) was greater than 100000 nM and the GI50 (SF-268 CNS) was less than 10 nM. It also gave a TGI (SF-268 CNS) of 5810 nM, a GI50 (786-0 renal) of less than 10 nM and a TGI (786-0 renal) greater than 100000 nM. For the same compound, the GI50 (KM12 colon) was less than 10 nM, the TGI (KM12 colon) was greater than 23800 nM and the GI50 (NCI-H23 lung) was less than 13.9 nM. It also gave a TGI (NCI-H23 lung) of 449 nM, a GI50 (OVCAR-5 ovarian) of 309 nM and a TGI (OVCAR-5 ovarian) greater than 59100 nM. For the same compound, the GI50 (COLO 205 colon) was less than 10 nM, the TGI (COLO 205 colon) was 960 nM and the GI50 (HT29 colon) was less than 10 nM. The TGI (HT29 colon) was greater than 100000 nM, the GI50 (IGROV1 ovarian) was 39.8 nM and the TGI (IGROV1 ovarian) was greater than 100000 nM. The GI50 (SK-OV-3 ovarian) was greater than 100000 nM, the TGI (SK-OV-3 ovarian) was greater than 100000 nM and the GI50 (HOP-62 NSCLC) was less than 32.8 nM. It also gave a TGI (HOP-62 NSCLC) of 1280 nM, a GI50 (SF-539 CNS) of less than 10 nM and a TGI (SF-539 CNS) of 527 nM. It also gave a GI50 (A549 NSCLC) of less than 10 nM, a TGI (A549 NSCLC) greater than 100000 nM and a GI50 (HCT-116 colon) of less than 10 nM. For the same compound, the TGI (HCT-116 colon) was greater than 100000 nM, the GI50 (M14 melanoma) was less than 20.1 nM and the TGI (M14 melanoma) was 740 nM. The GI50 (OVCAR-8 ovarian) was less than 10 nM, the GI50 (HCT-15 colon) was less than 16.6 nM and the TGI (HCT-15 colon) was greater than 100000 nM. For the same compound, the GI50 (NCI-H522 lung) was less than 10 nM, the TGI (NCI-H522 lung) was greater than 100000 nM and the GI50 (SK-MEL-5 melanoma) was less than 10 nM. The TGI (SK-MEL-5 melanoma) was 41.2 nM, the TGI (SNB-19 CNS) was greater than 100000 nM and the GI50 (T-47D breast) was less than 23.8 nM. For the same compound, the GI50 (UACC-62 melanoma) was less than 14.1 nM, the TGI (UACC-62 melanoma) was 372 nM and the GI50 (SK-MEL-28 melanoma) was less than 10 nM. For the same compound, the TGI (SK-MEL-28 melanoma) was 378 nM, the GI50 (MCF7 breast) was less than 10 nM and the TGI (MCF7 breast) was greater than 100000 nM. It also gave a GI50 (A498 renal) of less than 13.4 nM, a TGI (A498 renal) of 199 nM and a GI50 (UACC-257 melanoma) of 114 nM. For the same compound, the TGI (UACC-257 melanoma) was greater than 23100 nM, the GI50 (NCI/ADR-RES ovarian) was less than 11.5 nM and the TGI (NCI/ADR-RES ovarian) was 16000 nM. For the same compound, the GI50 (SF-295 CNS) was less than 10 nM, the TGI (SF-295 CNS) was 4260 nM and the GI50 (HOP-92 NSCLC) was 196 nM. The TGI (HOP-92 NSCLC) was greater than 46400 nM, the GI50 (MALME-3M melanoma) was less than 11.8 nM and the TGI (MALME-3M melanoma) was 444 nM. It also gave a GI50 (HL-60(TB) leukemia) of less than 11 nM, a GI50 (EKVX NSCLC) of 529 nM and a TGI (EKVX NSCLC) greater than 29800 nM. For the same compound, the GI50 (CCRF-CEM leukemia) was less than 10 nM, the GI50 (MDA-MB-435) was less than 10 nM and the TGI (MDA-MB-435) was 181 nM. For the same compound, the GI50 (HCC-2998 colon) was less than 10 nM, the GI50 (PC-3 prostate) was less than 30.5 nM and the TGI (PC-3 prostate) was greater than 69000 nM. The GI50 (HS 578T breast) was less than 26.5 nM, the TGI (HS 578T breast) was 8440 nM and the GI50 (UO-31 renal) was less than 10 nM. The TGI (UO-31 renal) was greater than 100000 nM, the GI50 (MOLT-4 leukemia) was less than 10 nM and the TGI (MOLT-4 leukemia) was 12.4 nM. It also gave a GI50 (NCI-H460 lung) of less than 10 nM, a TGI (NCI-H460 lung) greater than 21500 nM and a GI50 (LOX IMVI melanoma) of less than 10 nM. The GI50 (SW-620 colon) was less than 10 nM, the TGI (SW-620 colon) was greater than 100000 nM and the GI50 (DU-145 prostate) was less than 10 nM. The TGI (DU-145 prostate) was greater than 100000 nM, the GI50 (OVCAR-3 ovarian) was less than 10 nM and the TGI (OVCAR-3 ovarian) was 746 nM. It also gave a GI50 (ACHN renal) of 46.9 nM, a TGI (ACHN renal) greater than 100000 nM and a GI50 (BT-549 breast) of less than 19 nM. For the same compound, the TGI (BT-549 breast) was 2520 nM.
